Numbered stars: 1 amine (or outer) side, 2 acyl side, 3 side chain; on linkers, the order of the positions; unused ones are H or OH. Side chains are listed from the residue outwards. Peptide text beside a SMILES is read from it. * marks the point of attachment. C18 diacid = O=C(O)CCCCCCCCCCCCCCCCC(=O)*; γGlu = O=C(O)[C@H](CCC(=O)[*:2])N[*:1]; AEEA = NCCOCCOCC(=O)O
assay: Assay (II) PK i.v. minipig, in vivo half-life; design: species or system Göttingen mini-pigs; conditions: male, Göttingen, minipig, iv, Half-life minipig, Assay (II)
Summary of the method: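 Plasma levels after a single 6 nmol/kg intravenous dose in five male Göttingen mini-pigs were measured by TFC/LC/MS/MS against spiked-plasma calibration, sampling to 240 h. Vehicle: 50 mM K2HPO4, 0.05% tween 80, pH 8.0. Individual profiles analysed non-compartmentally for half-life.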

SMILES	half-life
CC[C@H](C)[C@H](NC(=O)[C@H](Cc1ccc(O)cc1)NC(=O)[C@H](CCCNC(=N)N)NC(=O)[C@H](CCCNC(=N)N)NC(=O)[C@H](CCCCNC(=O)COCCOCCNC(=O)COCCOCCNC(=O)CC[C@H](NC(=O)CCCCCCCCCCCCCCCCC(=O)O)C(=O)O)NC(=O)[C@H](CC(=O)O)NC(=O)[C@H](C)NC(=O)[C@H](C)NC(=O)[C@H](Cc1ccc(O)cc1)NC(=O)[C@H](CCC(N)=O)NC(=O)[C@H](C)NC(=O)[C@H](CCSC)NC(=O)[C@H](CCC(N)=O)NC(=O)[C@H](CCC(=O)O)NC(=O)[C@@H]1CCCN1C(=O)[C@@H](NC(=O)[C@H](C)NC(=O)[C@H](CC(N)=O)NC(=O)[C@H](CC(=O)O)NC(=O)CNC(=O)[C@@H]1CCCN1C(=O)[C@H](Cc1ccc(O)cc1)NC(=O)[C@@H](NC(=O)[C@@H]1CCCN1C(=O)[C@H](CCC(=O)O)NC(=O)[C@H](CC(C)C)NC(=O)[C@@H]1CCCN1)C(C)C)[C@@H](C)O)C(=O)N[C@@H](CC(N)=O)C(=O)N[C@@H](CCSC)C(=O)N[C@@H](CC(C)C)C(=O)N[C@H](C(=O)N[C@@H](CCCNC(=N)N)C(=O)N1CCC[C@H]1C(=O)N[C@@H](CCCNC(=N)N)C(=O)N[C@@H](Cc1ccc(O)cc1)C(N)=O)[C@@H](C)O [Compound J] (H-PLEPVYPGDNATPEQMAQYAADK([AEEA-AEEA-γGlu-C18 diacid])RRYINMLTRPRY-NH2; N-terminus and C-terminus assumed)	44 h
CC[C@H](C)[C@H](NC(=O)[C@H](Cc1ccc(O)cc1)NC(=O)[C@H](CCCNC(=N)N)NC(=O)[C@H](CCCNC(=N)N)NC(=O)[C@H](CC(C)C)NC(=O)[C@H](CC(=O)O)NC(=O)[C@H](C)NC(=O)[C@H](C)NC(=O)[C@H](Cc1ccc(O)cc1)NC(=O)[C@H](CCC(N)=O)NC(=O)[C@H](C)NC(=O)[C@H](CCSC)NC(=O)[C@H](CCC(N)=O)NC(=O)[C@H](CCC(=O)O)NC(=O)[C@@H]1CCCN1C(=O)[C@@H](NC(=O)[C@H](C)NC(=O)[C@H](CC(N)=O)NC(=O)[C@H](CC(=O)O)NC(=O)CNC(=O)[C@@H]1CCCN1C(=O)[C@H](Cc1ccc(O)cc1)NC(=O)[C@H](CCCCNC(=O)COCCOCCNC(=O)COCCOCCNC(=O)CC[C@H](NC(=O)CCCCCCCCCCCCCCCCC(=O)O)C(=O)O)NC(=O)[C@@H]1CCCN1C(=O)[C@H](CCC(=O)O)NC(=O)[C@H](CC(C)C)NC(=O)[C@@H]1CCCN1)[C@@H](C)O)C(=O)N[C@@H](CC(N)=O)C(=O)N[C@@H](CCSC)C(=O)N[C@@H](CC(C)C)C(=O)N[C@H](C(=O)N[C@@H](CCCNC(=N)N)C(=O)N1CCC[C@H]1C(=O)N[C@@H](CCCNC(=N)N)C(=O)N[C@@H](Cc1ccc(O)cc1)C(N)=O)[C@@H](C)O [Compound AB]	44 h
CSCC[C@H](NC(=O)[C@H](CCC(N)=O)NC(=O)[C@H](CCC(=O)O)NC(=O)[C@@H]1CCCN1C(=O)[C@@H](NC(=O)[C@H](C)NC(=O)[C@H](CC(N)=O)NC(=O)[C@H](CC(=O)O)NC(=O)CNC(=O)[C@@H]1CCCN1C(=O)[C@H](Cc1ccc(O)cc1)NC(=O)[C@@H](NC(=O)[C@@H]1CCCN1C(=O)[C@H](CCC(=O)O)NC(=O)[C@@H](N)CC(C)C)C(C)C)[C@@H](C)O)C(=O)N[C@@H](C)C(=O)N[C@@H](CCC(N)=O)C(=O)N[C@@H](Cc1ccc(O)cc1)C(=O)N[C@@H](C)C(=O)N[C@@H](C)C(=O)N[C@@H](CC(=O)O)C(=O)N[C@@H](CC(C)C)C(=O)N[C@@H](CCCNC(=N)N)C(=O)N[C@@H](CCCNC(=N)N)C(=O)N[C@@H](Cc1ccc(O)cc1)C(=O)N[C@@H](CCCCNC(=O)COCCOCCNC(=O)COCCOCCNC(=O)CC[C@H](NC(=O)CCCCCCCCCCCCCCCCC(=O)O)C(=O)O)C(=O)N[C@@H](CC(N)=O)C(=O)N[C@@H](CCSC)C(=O)N[C@@H](CC(C)C)C(=O)N[C@H](C(=O)N[C@@H](CCCNC(=N)N)C(=O)N1CCC[C@H]1C(=O)N[C@@H](CCCNC(=N)N)C(=O)N[C@@H](Cc1ccc(O)cc1)C(N)=O)[C@@H](C)O [Compound AN] (H-LEPVYPGDNATPEQMAQYAADLRRYK([AEEA-AEEA-γGlu-C18 diacid])NMLTRPRY-NH2; N-terminus and C-terminus assumed)	69 h

Second part, the compound after the results:

half-life	SMILES
9 h	CC[C@H](C)[C@H](NC(=O)[C@H](Cc1ccc(O)cc1)NC(=O)[C@H](CCCNC(=N)N)NC(=O)[C@H](CCCNC(=N)N)NC(=O)[C@H](CC(C)C)NC(=O)[C@H](CC(=O)O)NC(=O)[C@H](C)NC(=O)[C@H](C)NC(=O)[C@H](Cc1ccc(O)cc1)NC(=O)[C@H](CCC(N)=O)NC(=O)[C@H](C)NC(=O)[C@H](CCSC)NC(=O)[C@H](CCC(N)=O)NC(=O)[C@H](CCC(=O)O)NC(=O)[C@@H]1CCCN1C(=O)[C@@H](NC(=O)[C@H](C)NC(=O)[C@H](CC(N)=O)NC(=O)[C@H](CC(=O)O)NC(=O)CNC(=O)[C@@H]1CCCN1C(=O)[C@H](CCCCNC(=O)COCCOCCNC(=O)COCCOCCNC(=O)CC[C@H](NC(=O)CCCCCCCCCCCCCCCCC(=O)O)C(=O)O)NC(=O)[C@@H](NC(=O)[C@@H]1CCCN1C(=O)[C@H](CCC(=O)O)NC(=O)[C@@H](N)CC(C)C)C(C)C)[C@@H](C)O)C(=O)N[C@@H](CC(N)=O)C(=O)N[C@@H](CCSC)C(=O)N[C@@H](CC(C)C)C(=O)N[C@H](C(=O)N[C@@H](CCCNC(=N)N)C(=O)N1CCC[C@H]1C(=O)N[C@@H](CCCNC(=N)N)C(=O)N[C@@H](Cc1ccc(O)cc1)C(N)=O)[C@@H](C)O [Compound BI]
25 h	CC[C@H](C)[C@H](NC(=O)[C@H](Cc1ccc(O)cc1)NC(=O)[C@H](CCCNC(=N)N)NC(=O)[C@H](CCCNC(=N)N)NC(=O)[C@H](CC(C)C)NC(=O)[C@H](CC(=O)O)NC(=O)[C@H](C)NC(=O)[C@H](C)NC(=O)[C@H](Cc1ccc(O)cc1)NC(=O)[C@H](CCC(N)=O)NC(=O)[C@H](C)NC(=O)[C@H](CCCCNC(=O)COCCOCCNC(=O)COCCOCCNC(=O)CC[C@H](NC(=O)CCCCCCCCCCCCCCCCC(=O)O)C(=O)O)NC(=O)[C@H](CCC(N)=O)NC(=O)[C@H](CCC(=O)O)NC(=O)[C@@H]1CCCN1C(=O)[C@@H](NC(=O)[C@H](C)NC(=O)[C@H](CC(N)=O)NC(=O)[C@H](CC(=O)O)NC(=O)CNC(=O)[C@@H]1CCCN1C(=O)[C@H](Cc1ccc(O)cc1)NC(=O)[C@@H](NC(=O)[C@@H]1CCCN1C(=O)[C@H](CCC(=O)O)NC(=O)[C@@H](N)CC(C)C)C(C)C)[C@@H](C)O)C(=O)N[C@@H](CC(N)=O)C(=O)N[C@@H](CCSC)C(=O)N[C@@H](CC(C)C)C(=O)N[C@H](C(=O)N[C@@H](CCCNC(=N)N)C(=O)N1CCC[C@H]1C(=O)N[C@@H](CCCNC(=N)N)C(=O)N[C@@H](Cc1ccc(O)cc1)C(N)=O)[C@@H](C)O [Compound AY] (H-LEPVYPGDNATPEQK([AEEA-AEEA-γGlu-C18 diacid])AQYAADLRRYINMLTRPRY-NH2; N-terminus and C-terminus assumed)

From patent US20150141336A1, “Pancreatic Peptide Compounds and Use” (Novo Nordisk A/S, priority 2012, published 2015)
